The assay has as its system anaphylactic asthma in guinea-pigs. The assay can be described thus: Antagonism to anaphylactic asthma in guinea-pigs (passively sensitized with rabbit anti-egg albumin antiserum, egg albumin aerosol challenge; survival). It counts as in vivo, guinea-pig (male Hartley strain). To be noted: 10 mg/kg, oral, 30 minutes before egg albumin aerosol challenge; dose group 3 or 5 animals (* = 3 guinea-pigs: Examples 10-(5) and 11). As for the experimental part: Equal volumes of a saline solution of egg albumin (200 mg/ml) and of Freund's Complete Adjuvant were mixed and emulsified. Each male New Zealand white strain rabbits, each weighing 2 to 2.5 kg., received an intramuscular injection of 0.5 ml of the emulsion in the left and right thigh regions. One week later, they received an intradermal injection of 0.25 ml of a saline solution of egg albumin (concentration: 20 mg/ml) in the different four sites of the dorsal skin surface three times every other week. Blood samples were collected from the carotid artery one week after the last injection.
The level of anaphylactic anti-egg albumin antibodies in pools of sera were determined by passive cutaneous anaphylaxis (PCA) reactions using shaven Hartley strain test guinea-pigs.
Antiserum was serially diluted (two fold) in saline and 0.1 ml of each antiserum dilution were injected intradermally into the dorsal skin surface of the test guinea-pigs. 24 hours after intradermal sensitization,Egg albumin-specific PCA reactions were elicited by intravenous injection of 10 mg of egg albumin in 1 ml of 1% Evans blue dye dissolved in saline. Reactions were read and recorded as the highest dilution of serum evoking threshold PCA reactivity (5 mm diameter).
Male Hartley strain guinea-pigs, weighing 305 to 400 g, were used. Animals were sensitized by an intravenous injection of rabbit antiserum against egg albumin (4000 PCA titer) with 0.5 ml/animal. After 24 hours, animals were placed individually in a plastic chamber of 5.3 liter volume. An aerosol of 5% egg albumin solution was sprayed in the chamber at a rate of 0.16 ml/min with a commercial nebulizer. The test compounds were given to the animals orally 30 minutes before the challenge with the egg albumin solution. Each dose group consisted of 3 or 5 animals. The inhibitory effect of the test compounds was determined from the number of surviving animals more than 2 hours after spray of the antigen.

Where a name gives a salt, the structure may show the parent alone.

Regarding `CS(=O)(=O)Nc1cccc(CN2CCN(C(c3ccccc3)c3ccccc3)CC2)n1.Cl.Cl` [Example 13, 1-(6-methanesulfonylaminopyridin-2-ylmethyl)-4-benzhydrylpiperazine dihydrochloride], the “Inhibitory effect of anaphylactic asthma in guinea-pig (from number of surviving animals more than 2 hours after spray of the antigen)” value (“Inhibitory effect of anaphylactic asthma” for short) worked out at 100%.

Regarding `O=C(Cn1c(=O)sc2ccccc21)NCCCN1CCN(C(c2ccccc2)c2ccccc2)CC1` [Example 10-(8), 1-[3-[2-(2-Oxo-benzothiazolin-3-yl)acetylamino]propyl]-4-benzhydrylpiperazine], the “Inhibitory effect of anaphylactic asthma” value worked out at 80%.

Turning to `COc1ccccc1C(=O)NCCCN1CCN(C(c2ccccc2)c2ccccc2)CC1.Cl.Cl` [Example 10-(2), 1-[3-(2-Methoxybenzoylamino)propyl]-4-benzhydrylpiperazine dihydrochloride], the “Inhibitory effect of anaphylactic asthma” value was 80%.

In the case of `Cl.Cl.O=C(NCCCN1CCN(C(c2ccccc2)c2ccccc2)CC1)c1ccccc1` [Example 7, 1-(3-benzoylaminopropyl)-4-benzhydrylpiperazine dihydrochloride], the “Inhibitory effect of anaphylactic asthma” value came out at 100%.

`CS(=O)(=O)Nc1ccccc1C(=O)NCCCN1CCN(C(c2ccccc2)c2ccccc2)CC1` [Example 10-(5), 1-[3-(2-Methanesulfonylaminobenzoylamino)propyl]-4-benzhydrylpiperazinedihydrochloride]: the “Inhibitory effect of anaphylactic asthma” value was 100%.

In the case of `CC(=O)NCCCN1CCN(C(c2ccccc2)c2ccccc2)CC1` [Example 11, 1-(3-acetylaminopropyl)-4-benzhydrylpiperazine], the “Inhibitory effect of anaphylactic asthma” value is reported as 100%.

Consider `CC(=O)CCCN1CCN(C(c2ccccc2)c2ccccc2)CC1.O=C(O)/C=C/C(=O)O` [Example 1, 1-(4-oxo-1-pentyl)-4-benzhydrylpiperazine fumarate], for which the “Inhibitory effect of anaphylactic asthma” value came out at 100%.

The values are drawn from US4591590A, “Benzhydrylpiperazine derivatives, processes for the preparation thereof and pharmaceutical composition comprising the same” (Fujisawa Pharmaceutical Co., Ltd., priority 1982, dated 1986).
